What was measured:
[1] = test system: barnyardgrass; assay: Test B pre-/postemergence herbicide test; assay type: in vivo, Echinochloa crus-galli; conditions: for Plant response rating, Barnyardgrass: visual rating after 13 to 15 days
Procedure, shortened: (§1)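 Seeds were planted and treated preemergence with compounds formulated in a non-phytotoxic solvent mixture containing surfactant, while plants at the 1- to 4-leaf stage (2 to 18 cm) received postemergence sprays. Flooded paddy plants were grown to the 2-leaf stage. After 13 to 15 days in a greenhouse, injury was visually rated 0–100 against untreated controls.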

[2] = test system: Surinam grass; assay: Test B pre-/postemergence herbicide test; assay type: in vivo, Urochloa decumbens; conditions: for Surinam Grass plant response rating: Preemergence, scale 0 to 100
Procedure, shortened: (§2)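 Herbicidal effect was judged by eye on a 0–100 scale after plants stood 13 to 15 days in the greenhouse following pre- or postemergence treatment with surfactant-containing formulations.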

[3] = test system: cocklebur; assay: Test B pre-/postemergence herbicide test; assay type: in vivo, Xanthium strumarium; conditions: for Plant response rating, Cocklebur: visual rating after 13 to 15 days
Procedure, shortened: as §1

[4] = test system: corn; assay: Test B pre-/postemergence herbicide test; assay type: in vivo, Zea mays; conditions: for Plant response rating, Corn: visual rating after 13 to 15 days
Procedure, shortened: as §2

[5] = test system: large crabgrass; assay: Test B pre-/postemergence herbicide test; assay type: in vivo, Digitaria sanguinalis; conditions: for Plant response rating, Crabgrass, Large: visual rating after 13 to 15 days
Procedure, shortened: as §2

[6] = test system: giant foxtail; assay: Test B pre-/postemergence herbicide test; assay type: in vivo, Setaria faberi
Procedure, shortened: as §2

[7] = test system: morningglory; assay: Test B pre-/postemergence herbicide test; assay type: in vivo, Ipomoea coccinea
Procedure, shortened: as §1

[8] = test system: pigweed; assay: Test B pre-/postemergence herbicide test; assay type: in vivo, Amaranthus retroflexus; conditions: for Pigweed plant response rating: Preemergence, scale 0 to 100
Procedure, shortened: as §2

[9] = test system: velvetleaf; assay: Test B pre-/postemergence herbicide test; assay type: in vivo, Abutilon theophrasti; conditions: for Velvetleaf plant response rating: Preemergence, scale 0 to 100
Procedure, shortened: as §2

[10] = test system: blackgrass; assay: Test B postemergence herbicide test; assay type: in vivo, Alopecurus myosuroides; conditions: Postemergence, scale 0 (no effect) to 100 (complete control); for Blackgrass plant response rating: 125 g ai/ha; for Plant response rating, Blackgrass: 500 g ai/ha, visual rating after 13 to 15 days
Procedure, shortened: (§3)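 Postemergence plants were sprayed with formulated test chemicals at 2 to 18 cm height (1- to 4-leaf stage); paddy species were grown to the 2-leaf stage. After 13 to 15 days in a greenhouse, injury was rated visually against untreated controls on a 0–100 scale (0 = no effect, 100 = complete control).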

[11] = test system: wheat; assay: Test B postemergence herbicide test; assay type: in vivo, Triticum aestivum; conditions: Postemergence, 500 g ai/ha; visual rating after 13 to 15 days, scale 0 (no effect) to 100 (complete control)
Procedure, shortened: (§4)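 Each value is a visual 0–100 response rating taken against controls 13 to 15 days after treatment in the greenhouse. Plants received formulated chemical postemergence at the 1- to 4-leaf stage or, in flooded paddy, at the 2-leaf stage.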

[12] = test system: wild oat; assay: Test B postemergence herbicide test; assay type: in vivo, Avena fatua; conditions: Postemergence, scale 0 (no effect) to 100 (complete control); for Oat, Wild plant response rating: 125 g ai/ha; for Plant response rating, Oat, Wild: 500 g ai/ha, visual rating after 13 to 15 days
Procedure, shortened: as §4

[13] = test system: rice; assay: Test B flooded paddy test; assay type: in vivo, Oryza sativa; conditions: 1000 g ai/ha, visual rating, scale 0 to 100 (0 no effect, 100 complete control), 13 to 15 days
Procedure, shortened: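 Treated at 2-leaf (paddy) or 1–4-leaf, 2–18 cm (postemergence); greenhouse 13–15 d; visual score vs control, 0 none to 100 complete control; dash = not tested.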

[14] = test system: small flower umbrella sedge; assay: Test B flooded paddy test; assay type: in vivo, Cyperus difformis; conditions: 1000 g ai/ha, visual rating, scale 0 to 100 (0 no effect, 100 complete control), 13 to 15 days
Procedure, shortened: as §3

[15] = test system: ducksalad; assay: Test B flooded paddy test; assay type: in vivo, Heteranthera limosa; conditions: 1000 g ai/ha, visual rating, scale 0 to 100 (0 no effect, 100 complete control), 13 to 15 days
Procedure, shortened: as §3

[16] = test system: barnyardgrass; assay: Test B flooded paddy test; assay type: in vivo, Echinochloa crus-galli; conditions: 1000 g ai/ha, visual rating, scale 0 to 100 (0 no effect, 100 complete control), 13 to 15 days
Procedure, shortened: as §3

[17] = Postemergence, 125 g ai/ha, scale 0 (no effect) to 100 (complete control)
[18] = Postemergence, 500 g ai/ha, scale 0 (no effect) to 100 (complete control)
[19] = Preemergence, 500 g ai/ha, scale 0 to 100
[20] = Postemergence, 500 g ai/ha, visual rating after 13 to 15 days, scale 0 (no effect) to 100 (complete control)
[21] = preemergence, 125 g ai/ha, 0 to 100 scale, 0 is no effect, 100 is complete control

C=CCNC(=O)c1cccc(NC(=O)c2cc(C(C)(C)C)nn2CC)c1 [Compound 46]
70: Surinam Grass plant response rating ([2]; 500 g ai/ha) | Rice plant response rating [13]
40: Plant response rating, Surinam Grass [2, 20] | Plant response rating, Foxtail, Giant [6, 20]
0: Morningglory plant response rating [7, 17] | Oat, Wild plant response rating [12]
90: Plant response rating, Cocklebur [3, 18] | Plant response rating, Crabgrass, Large [5, 18] | Plant response rating, Morningglory [7, 20] | Plant response rating, Pigweed [8, 20] | Ducksalad plant response rating [15] | Barnyardgrass plant response rating [16]
20: Plant response rating, Surinam Grass [2, 21] | Corn plant response rating [4, 17] | Morningglory plant response rating [7, 19] | Plant response rating, Blackgrass [10]
30: Cocklebur plant response rating [3, 17] | Cocklebur plant response rating [3, 19] | Plant response rating, Corn [4, 18] | Crabgrass, Large plant response rating [5, 17] | Foxtail, Giant plant response rating [6, 17] | Plant response rating, Wheat [11]
60: Plant response rating, Foxtail, Giant [6, 21]
10: Barnyardgrass plant response rating [1, 17] | Corn plant response rating [4, 19] | Plant response rating, Morningglory [7, 21] | Blackgrass plant response rating [10] | Plant response rating, Oat, Wild [12]
80: Plant response rating, Velvetleaf [9, 20] | Sedge, Umbrella plant response rating [14]
100: Barnyardgrass plant response rating [1, 19] | Crabgrass, Large plant response rating [5, 19] | Foxtail, Giant plant response rating [6, 19] | Pigweed plant response rating ([8]; 500 g ai/ha) | Plant response rating, Pigweed [8, 21] | Velvetleaf plant response rating ([9]; 500 g ai/ha)
50: Plant response rating, Barnyardgrass [1, 18] | Plant response rating, Velvetleaf [9, 21]

C#CCNC(=O)c1cccc(NC(=O)c2cc(C(C)(C)C)nn2CC)c1 [Compound 47]
80: Sedge, Umbrella plant response rating [14] | Ducksalad plant response rating [15]
10: Cocklebur plant response rating [3, 17] | Corn plant response rating [4, 17] | Corn plant response rating [4, 19] | Crabgrass, Large plant response rating [5, 17] | Blackgrass plant response rating [10] | Plant response rating, Blackgrass [10] | Oat, Wild plant response rating [12]
20: Barnyardgrass plant response rating [1, 17] | Plant response rating, Surinam Grass [2, 21] | Plant response rating, Morningglory [7, 21]
70: Surinam Grass plant response rating ([2]; 500 g ai/ha) | Plant response rating, Crabgrass, Large [5, 18] | Plant response rating, Velvetleaf [9, 20] | Rice plant response rating [13]
30: Plant response rating, Corn [4, 18] | Foxtail, Giant plant response rating [6, 17] | Plant response rating, Foxtail, Giant [6, 20] | Morningglory plant response rating [7, 17] | Morningglory plant response rating [7, 19] | Plant response rating, Velvetleaf [9, 21] | Plant response rating, Wheat [11] | Plant response rating, Oat, Wild [12]
100: Plant response rating, Cocklebur [3, 18] | Crabgrass, Large plant response rating [5, 19] | Plant response rating, Morningglory [7, 20] | Plant response rating, Pigweed [8, 20] | Pigweed plant response rating ([8]; 500 g ai/ha) | Plant response rating, Pigweed [8, 21] | Velvetleaf plant response rating ([9]; 500 g ai/ha)
90: Barnyardgrass plant response rating [1, 19] | Foxtail, Giant plant response rating [6, 19] | Barnyardgrass plant response rating [16]
40: Plant response rating, Barnyardgrass [1, 18] | Plant response rating, Surinam Grass [2, 20] | Cocklebur plant response rating [3, 19] | Plant response rating, Foxtail, Giant [6, 21]

CCN(C)C(=O)c1cccc(NC(=O)c2cc(C(C)(C)C)nn2CC)c1 [Compound 48]
10: Plant response rating, Surinam Grass [2, 21] | Crabgrass, Large plant response rating [5, 17] | Plant response rating, Morningglory [7, 21] | Plant response rating, Blackgrass [10] | Oat, Wild plant response rating [12]
20: Plant response rating, Crabgrass, Large [5, 18] | Foxtail, Giant plant response rating [6, 17] | Plant response rating, Wheat [11]
70: Plant response rating, Cocklebur [3, 18] | Plant response rating, Foxtail, Giant [6, 21] | Plant response rating, Pigweed [8, 20]
40: Barnyardgrass plant response rating [1, 17] | Morningglory plant response rating [7, 19]
80: Surinam Grass plant response rating ([2]; 500 g ai/ha) | Crabgrass, Large plant response rating [5, 19] | Plant response rating, Velvetleaf [9, 20] | Rice plant response rating [13] | Sedge, Umbrella plant response rating [14] | Ducksalad plant response rating [15] | Barnyardgrass plant response rating [16]
100: Pigweed plant response rating ([8]; 500 g ai/ha) | Plant response rating, Pigweed [8, 21] | Velvetleaf plant response rating ([9]; 500 g ai/ha)
0: Cocklebur plant response rating [3, 17] | Corn plant response rating [4, 17] | Corn plant response rating [4, 19] | Morningglory plant response rating [7, 17] | Blackgrass plant response rating [10]
30: Plant response rating, Corn [4, 18] | Plant response rating, Foxtail, Giant [6, 20] | Plant response rating, Oat, Wild [12]
90: Barnyardgrass plant response rating [1, 19] | Foxtail, Giant plant response rating [6, 19] | Plant response rating, Velvetleaf [9, 21]
60: Plant response rating, Barnyardgrass [1, 18]
50: Plant response rating, Surinam Grass [2, 20] | Cocklebur plant response rating [3, 19] | Plant response rating, Morningglory [7, 20]
